According to patent US8685439B2, “Method for the treatment and prevention of eyelid swelling” (Aciex Therapeutics, Inc., priority 2006, dated 2014):

Legend:
morning eyelid swelling [1] = experiment: Treatment of morning eyelid swelling (eyelid edema), eyelid volume by 3D scanner, treated eye vs untreated eye; format: in vivo, human; details: for reduction of morning eyelid swelling (result in words): topical to one eye, other eye untreated, 3D scanner
Protocol: In this study, the efficacy of naphazoline 0.1% ophthalmic solution was evaluated for treatment for eyelid edema. The eyelid volume for 11 subjects participating in the study was recorded in the afternoon of Day 1 and again upon arrival to the clinic the following morning (Day 2). […] The natural progression of morning eyelid swelling, as measured using 3D scanning technology is depicted in FIG. 10. The increase ranged from 14 mm^3 to 659 mm^3. Subjects were then dosed with naphazoline 0.1% (vasoconstrictor) in the right eye and eyelid volume was assessed at 5, 10, 15, 30, and 120 minutes following treatment using a 3-D scanner. […] A summary of all the patient data is depicted if FIG. 3L.
In a preliminary study with a similar design to that described above, NaCl 5% ophthalmic solution was evaluated as a potential treatment for eyelid edema. […] Eyelid swelling was assessed using a 3-D scanner at 5, 10, 15, 20, 30, and 120 minutes post-treatment. […] In one subject, this reduction was pronounced and was present through the 120 minute assessment time point. In the remaining three patients, treatment was not effective.
A total of 6 subjects (male, between the ages of 25 and 29) were evaluated. At the start of the study, five (5) baseline scans were performed per subject and eye using a 3D scanner. The next day, subjects were asked to five (5) scans of each eye, identical to Visit 1, were then taken.
Subjects received the 2 drops (40 μl each) of the combination treatment, with one minute apart each drop in one eye and no treatment in the other eye. Five (5) scans of each eye were taken, identical to Visit 1, 20 minutes after second drop instillation. Subjects were asked to grade their eyelid swelling post treatment. Digital photos were also taken at baseline and at 20 minutes post treatment.

morning eyelid swelling [2] = experiment: as above; format: in vivo, human; details: topical to one eye, other eye untreated

Structure (SMILES): CNC[C@H](O)c1cccc(O)c1 [0.25% phenylephrine formulation, phenylephrine, reference compound]
- reduction of morning eyelid swelling (result in words) (morning eyelid swelling [1]): did reduce morning eyelid swelling

Structure (SMILES): [Cl-].[Na+] [NaCl 5% ophthalmic solution, sodium chloride]
- patients in whom treatment was not effective (morning eyelid swelling [1]; 6 subjects): three
- mean change from baseline versus negative controls (morning eyelid swelling [1]; FIG. 4G): numerically superior to negative controls, though the differences were not statistically significant
- subjects with pronounced reduction in eyelid swelling (morning eyelid swelling [1]; present through the 120 minute assessment time point, 6 subjects): one
- patients with a reduction in eyelid swelling (morning eyelid swelling [1]; through 15 minutes post-instillation, 6 subjects): Three
- reduction of morning eyelid swelling (result in words) (morning eyelid swelling [1]): caused a reduction of eyelid swelling in several patients
- reduction of morning eyelid swelling (result in words) (morning eyelid swelling [2]): some efficacy

Structure (SMILES): OC[C@@H](O)[C@@H](O)[C@H](O)[C@H](O)CO [mannitol 12.5% solution, mannitol]
- reduction of morning eyelid swelling (result in words) (morning eyelid swelling [1]): did reduce morning eyelid swelling

Structure (SMILES): c1ccc2c(CC3=NCCN3)cccc2c1 [naphazoline 0.1%, naphazoline, reference compound]
- reduction of morning eyelid swelling (result in words) (morning eyelid swelling [1]): demonstrated efficacy
- subjects with greater decrease in eyelid volume in treatment eye than non-treatment eye (morning eyelid swelling [1]; up to the 30 minute timepoint): 9 out of 11
- subjects with greater decrease in eyelid volume in treatment eye than non-treatment eye (morning eyelid swelling [1]; up to the 120 minute timepoint): 7 out of 11
- reduction of morning eyelid swelling (result in words) (morning eyelid swelling [2]; listed as naphazoline 0.5% solution): caused a reduction of eyelid swelling in most subjects
